Test results from patent publication US20170198027A1 (priority 2012, published 2017).

How the values were obtained:
6-OHDA lesioned rat = 6-OHDA lesioned rat model of Parkinson's disease (cylinder, adjusting step, rotation, TH staining); format: in vivo; conditions: prophylactic, high and moderate groups vs vehicle, trend
Procedure: 1. Animals: male SO rats were purchased from Shanghai Laboratory Animal Center (SLAC). They were housed under 21-23 OC, with 12 h light-dark life cycle. Food and water were given ad libitum.
2. 6uOHDA lesion: Rats were anesthetized with 60 mg/kg sodium pentobarbital. They were stereotaxic injected with total dose of 20 pg of fresh prepared 6-OHDA (dissolved in saline containing 0.05% ascorbic acid, calculated as free base) into tvvo sites of the left striatum, using the following coordinates (in mm relative to Bregma): AP+i 0.0, L −2.5, DV −5.0; AP −0.4, L −4.0, DV −5.5. The injection rate was i pi/min and a total of 2 iJI was injected at each site. The needle was left in place for 3 min before retracting.
3. Cylinder test: Rats were placed in a transparent cylinder (22 cm in diameter and 30 cm height). Animal would rear and support its body with one or both of its forelimbs. […] Each behavioral was expressed as percent use of left, right or both limb(s) relative to the total number.
4. […] The number of adjusting steps of each left and right forelimbs on both directions was recorded individually. […]
6. […] Number of positively stained cells in the left and right sides of SN in each section was counted to make the summation. The ratio of left/right was calculated.
7. Statistic analysis: Data were expressed as mean±SEI\tl and analyzed with ANOVA followed by Tukey test. […]

[1] = test system: ApoE ko mice fed with high fat diet
Excerpt: 10 ApoE ko mice were fed with regular chow diet and used as negative control group. 50 ApoE ko mice were fed with high fat diet (35% kcal fat, 1% cholesterol) for 8 weeks, and then the plasma samples were collected for lipid profile measurement before the treatment. 50 ApoE ko mice were assigned into 5 groups based on the fasting overnight plasma TC and HDL level.
19 Mar. 2012 to 6 Apr. 2012: Group the mice based on the TC and HDL level and start the treatment with 3 doses of antibody APOA1 by i.p daily on the weekday (The first dose was administered by iv injection
13 Apr. 2012-14 May 2012: The treatment with antibody APOA1 was changed to i.p injection every two days (Monday, Wednesday, and Friday) per client's instruction.
Antibody products were administrated by intraperitoneal injection every two days (Monday, Wednesday, and Friday). and the positive compound was administered by p.o every day.
5.4. Body weight and blood glucose measurement: The body weight was weighed weekly during the period of treatment. The fasting overnight blood glucose was measured at the end of study by Roche glucometer.
5.5 24 h food intake measurement: 24 hours food intake for each cage was measured weekly
5.6. Plasma lipid profile measurement: About 300 ul of blood sample was collected from the orbital vein for each mouse and centrifuged at 7000 rpm for 5 min at 4° C. and the plasma lipid profile was measured by Roche Modular automatic biochemistry analyzer in DaAn Medical Laboratory
After RAAS antibody products treatment for 8 weeks, all mice were sacrificed. Measured body weight and collected blood sample for each mouse. Weighed liver weight and saved a tiny piece of liver into 4% paraformaldehyde (PFA) fixation solution for further analysis. At same time, take the photos with heart, lung, aortas and two kidneys.
Scanning the glasses slides with the Aperio ScanScope system and analyze with the image proplus software to measure the area of atherosclerotic plaque session. The results were expressed as the percentage of the total aortic surface area covered by lesions. The operation procedure of software was briefly described as follow: Converted the sys version photos into JPG version, then calibrated it and subsequently selected the red regions and then calculate the total area automatically by image proplus software.
The results were expressed as the Mean±SEM and statistically evaluated by student's t-test.

## human Apoiipoprotein AI, injection [APOA1]
6-OHDA lesioned rat
  neuron count, damage caused by 6-OHDA lesion: reduce the damage caused by 6-OHDA lesion
[1]; APOA1 mid dose and low dose, not significant vs vehicle
  arteriosclerosis plaque lesion in the region of thoracic aorta (root plaque area): trend of reducing the arteriosclerosis plaque lesion
[1]; after 8 week treatment, APOA1 low dose
  plasma total cholesterol (TC): significantly lower total cholesterol level
[1]; after 8 weeks treatment
  plasma TG level: no effect
[1]; after 8 weeks treatment vs vehicle
  fasting overnight blood glucose: no effect
[1]; after 8 weeks treatment vs vehicle, RAAS antibody low dose, atorvastatin 20 mg/kg
  ratio of liver weight/body weight: reduced the ratio of liver weight/body weight significantly
[1]; after 8 weeks treatment, APOA1 low dose
  atherosclerosis plaque lesion area of aorta: trend on reducing the plaque lesion area
[1]; after 15 doses treatment
  deaths in the treatment groups: several mice died
[1]; atorvastatin p=0.08
  atherosclerosis plaque lesion from the aortic root to right renal artery: trend of reducing the atherosclerosis plaque lesion in a dose dependent manner
[1]; low dose, after 4 weeks treatment
  plasma HDL: significantly decrease the HDL level
[1]; vs vehicle group, atorvastatin after 5 weeks treatment
  body weight: trend on reducing body weight but didn't reach statistic difference
